Data reported in BindingDB's records for doi:10.1021/jm5001979 (Amgen, 2014).

Assay: Induction of GK translocation from nucleus to cytoplasm of mouse hepatocytes preincubated for 20 mins followed by glucose challenge measured after 40 mins by Hoechst 33342 staining-based assay

Row | EC50 | SMILES
1 | 11.2 µM | Nc1ccc(S(=O)(=O)N2CCN(c3ncc(C(O)(C(F)(F)F)C(F)(F)F)cc3-c3cc[nH]n3)CC2)cn1
2 | 5.37 µM | Nc1ccc(S(=O)(=O)N2CCN(c3ncc(C(O)(C(F)(F)F)C(F)(F)F)cc3Br)CC2)cn1
3 | 3.35 µM | Nc1ccc(S(=O)(=O)N2CCN(c3ncc(C(O)(C(F)(F)F)C(F)(F)F)cc3C#CC3CC3)CC2)cn1
4 | 0.254 µM | COCC#Cc1cc(C(O)(C(F)(F)F)C(F)(F)F)cnc1N1CCN(S(=O)(=O)c2ccc(N)nc2)CC1
5 | 2.14 µM | CC(C)(O)C#Cc1cc(C(O)(C(F)(F)F)C(F)(F)F)cnc1N1CCN(S(=O)(=O)c2ccc(N)nc2)CC1
6 | 2.63 µM | Nc1ccc(S(=O)(=O)N2CCN(c3ncc(C(O)(C(F)(F)F)C(F)(F)F)cc3-c3ccc4[nH]ncc4c3)CC2)cn1
7 | 1.12 µM | Nc1ccc(S(=O)(=O)N2CCN(c3ncc(C(O)(C(F)(F)F)C(F)(F)F)cc3-c3cc4ccccc4[nH]3)CC2)cn1
8 | 2.75 µM | Nc1ccc(S(=O)(=O)N2CCN(c3ncc(C(O)(C(F)(F)F)C(F)(F)F)cc3-c3cc4ccccc4s3)CC2)cn1
9 | 6.36 µM | Nc1ccc(S(=O)(=O)N2CCN(c3ncc(C(O)(C(F)(F)F)C(F)(F)F)cc3Cl)CC2)cn1
10 | 0.234 µM | CN1C(=O)Cc2cc(-c3cc(C(O)(C(F)(F)F)C(F)(F)F)cnc3N3CCN(S(=O)(=O)c4ccc(N)nc4)CC3)ccc21
11 | 0.309 µM | Nc1ccc(S(=O)(=O)N2CCN(c3ncc(C(O)(C(F)(F)F)C(F)(F)F)cc3-c3ccc4c(c3)CC(=O)N4)CC2)cn1
12 | 0.416 µM | Nc1ccc(S(=O)(=O)N2CCN(c3ncc(C(O)(C(F)(F)F)C(F)(F)F)cc3-c3ccc4ocnc4c3)CC2)cn1
13 | 1.4 µM | COc1ccc(-c2cc(C(O)(C(F)(F)F)C(F)(F)F)cnc2N2CCN(S(=O)(=O)c3ccc(N)nc3)CC2)cn1
14 | > 12.5 µM | Nc1ccc(S(=O)(=O)N2CCN(c3ncc(C(O)(C(F)(F)F)C(F)(F)F)cc3-c3cncc(F)c3)CC2)cn1
15 | 1.29 µM | Nc1ccc(S(=O)(=O)N2CCN(c3ncc(C(O)(C(F)(F)F)C(F)(F)F)cc3-c3cnccc3F)CC2)cn1
16 | 0.766 µM | NC(=O)c1cccc(-c2cc(C(O)(C(F)(F)F)C(F)(F)F)cnc2N2CCN(S(=O)(=O)c3ccc(N)nc3)CC2)c1
17 | 1.38 µM | Nc1ccc(S(=O)(=O)N2CCN(c3ncc(C(O)(C(F)(F)F)C(F)(F)F)cc3-c3ccc(F)cc3)CC2)cn1
18 | 2.8 µM | Nc1ccc(S(=O)(=O)N2CCN(c3ncc(C(O)(C(F)(F)F)C(F)(F)F)cc3-c3cccc(F)c3)CC2)cn1
19 | 1.73 µM | Nc1ccc(S(=O)(=O)N2CCN(c3ncc(C(O)(C(F)(F)F)C(F)(F)F)cc3-c3ccoc3)CC2)cn1
20 | 1.26 µM | Cc1c(-c2cc(C(O)(C(F)(F)F)C(F)(F)F)cnc2N2CCN(S(=O)(=O)c3ccc(N)nc3)CC2)cnn1C
21 | 2.45 µM | CC(C)(C)n1cc(-c2cc(C(O)(C(F)(F)F)C(F)(F)F)cnc2N2CCN(S(=O)(=O)c3ccc(N)nc3)CC2)cn1
22 | 0.052 µM | Cn1cc(-c2cc(C(O)(C(F)(F)F)C(F)(F)F)cnc2N2CCN(S(=O)(=O)c3ccc(N)nc3)CC2)cn1

Further lines, the compound ahead of its results:

Row | SMILES | EC50
23 | Nc1ccc(S(=O)(=O)N2CCN(c3ncc(C(O)(C(F)(F)F)C(F)(F)F)cc3C#CCO)CC2)cn1 | 0.51 µM
24 | Nc1ccc(S(=O)(=O)N2CCN(c3ncc(C(O)(C(F)(F)F)C(F)(F)F)cc3C#CCCO)CC2)cn1 | 2 µM
25 | Nc1ccc(S(=O)(=O)N2CCN(c3ccc(C(O)(C(F)(F)F)C(F)(F)F)cn3)CC2)cn1 | > 12.5 µM
26 | Cc1nc2cc(-c3cc(C(O)(C(F)(F)F)C(F)(F)F)cnc3N3CCN(S(=O)(=O)c4ccc(N)nc4)CC3)ccc2o1 | 0.351 µM
27 | Nc1ccc(S(=O)(=O)N2CCN(c3ncc(C(O)(C(F)(F)F)C(F)(F)F)cc3-c3ccc4scnc4c3)CC2)cn1 | 1.15 µM
28 | Nc1ccc(S(=O)(=O)N2CCN(c3ncc(C(O)(C(F)(F)F)C(F)(F)F)cc3-c3ccc4sccc4c3)CC2)cn1 | > 12.5 µM
29 | COc1cncc(-c2cc(C(O)(C(F)(F)F)C(F)(F)F)cnc2N2CCN(S(=O)(=O)c3ccc(N)nc3)CC2)c1 | 1.4 µM
30 | Cc1ccc(-c2cc(C(O)(C(F)(F)F)C(F)(F)F)cnc2N2CCN(S(=O)(=O)c3ccc(N)nc3)CC2)cn1 | 4.68 µM
31 | Cc1cncc(-c2cc(C(O)(C(F)(F)F)C(F)(F)F)cnc2N2CCN(S(=O)(=O)c3ccc(N)nc3)CC2)c1 | 0.794 µM
32 | Nc1ccc(S(=O)(=O)N2CCN(c3ncc(C(O)(C(F)(F)F)C(F)(F)F)cc3-c3ccncc3)CC2)cn1 | 0.933 µM
33 | CS(=O)(=O)c1ccc(-c2cc(C(O)(C(F)(F)F)C(F)(F)F)cnc2N2CCN(S(=O)(=O)c3ccc(N)nc3)CC2)cc1 | 2.95 µM
34 | Nc1ccc(S(=O)(=O)N2CCN(c3ncc(C(O)(C(F)(F)F)C(F)(F)F)cc3-c3ccccc3O)CC2)cn1 | 0.565 µM
35 | Nc1ccc(S(=O)(=O)N2CCN(c3ncc(C(O)(C(F)(F)F)C(F)(F)F)cc3-c3ccccc3F)CC2)cn1 | 0.803 µM
36 | Nc1ccc(S(=O)(=O)N2CCN(c3ncc(C(O)(C(F)(F)F)C(F)(F)F)cc3-c3ccccc3)CC2)cn1 | 0.776 µM
37 | Cc1csc(-c2cc(C(O)(C(F)(F)F)C(F)(F)F)cnc2N2CCN(S(=O)(=O)c3ccc(N)nc3)CC2)c1 | 1.19 µM
38 | CC(C)n1cc(-c2cc(C(O)(C(F)(F)F)C(F)(F)F)cnc2N2CCN(S(=O)(=O)c3ccc(N)nc3)CC2)cn1 | 1.08 µM
39 | CCn1cc(-c2cc(C(O)(C(F)(F)F)C(F)(F)F)cnc2N2CCN(S(=O)(=O)c3ccc(N)nc3)CC2)cn1 | 0.081 µM
